≈ marks a conversion by molar mass, not a printed value. Read-outs that look alike come from different tables or passages of the source.
Experiments:
[1] = tested on: Pseudomonas aeruginosa strain RP73; assay: Alkylquinolone quantification, strain RP73; format: cell-based; settings: RP73, 17 h
Protocol: re-extracted with 0.2 M HCl and quantified photometrically (520 nm). IC50 values were determined from dose-response curves of compounds using at least six different concentrations and fitting with non-linear regression analysis (OriginPro 2017–2020, Originlab Corporation).
1.2.3 Alkylquinolone quantification
Inhibition of alkylquinolone (AQ) signal molecule biosynthesis of compound 24 was analyzed via LC-ESI-MS/MS. Extracellular concentrations of the AQs PQS (2-heptyl-3-hydroxy-4-quinolone), HHQ (2-heptyl-4-quinolone), HQNO (N-oxo-2-heptyl-4-Hydroxyquinoline), 2-AA (2-aminoacetophenone) were measured from supernatants of cultures incubated with or without compound for 17 h. 5,6,7,8-Tetradeutero-2-heptyl-4(1H)-quinolone (HHQ-d4) was added as internal standard before sample preparation. IC50 values were calculated according to the procedure of the pyocyanin assay (see above). LC-ESI-MS/MS conditions were as follows: Dionex Ultimate 3000 HPLC instrument parameters: Zorbax Eclipse XDB 80 Å C18 5 µm 4.6 x 50 mm (Agilent, Santa Clara, CA, USA); eluent A – H2O with 0.1% trifluoroacetic acid (TFA), 0.1% pentafluoropropionic acid (PFPA), 0.1% heptafluorobutyric acid (HFBA); eluent B – acetonitrile with 0.1% TFA, 0.1% PFPA, 0.1% HFBA; isocratic 50% A; flow – 0.7 mL/min. TSQ Quantum Access Max (Thermo Fisher Scientific, Waltham, MA, USA) instrument parameters: Spray voltage 3500 V, vaporizer temperature 370 °C, sheath gas pressure 35 psi, aux gas pressure 30 psi, capillary temperature 270 °C, collision pressure 1.5 mTorr, positive ionization mode. For AQ analyte reaction monitoring parameters please see Table S1.
Table S1. LC-ESI-MS/MS reaction monitoring parameters of AQ analytes in positive ionization mode. precursor product ion collision tube lens retention ion m/z m/z energy (V) offset (V) time (min)
1.2.4 Biofilm-formation assay […]
(Innvotech, Edmonton, CA). An overnight culture of PA14 was centrifuged (10 min, 5000 x g). The supernatant including extracellular polymers was removed and the pellet washed with 10 mL of LB medium. Centrifugation was repeated, the supernatant discarded, and the pellet resuspended in 5 mL of LB. OD was adjusted to 0.2. The bacteria were further diluted in LB medium, followed by addition of the target compound or DMSO control to give OD 0.1 and 1% DMSO. 150 µL were added to each well of the 96-well plate. The outer wells were used as blanks containing 150 µL of 1% DMSO in LB. Six replicates per sample were distributed evenly across the plate, with every row containing one replicate of each sample. The well plate was covered with the peg lid. One layer of parafilm was wrapped around the biofilm inoculator. The inoculator was incubated at 37 °C, static for 24 h with a beaker of H2O ensuring humidity. […]

PA14 biofilm = assay: eDNA release assay; format: cell-based; settings: Pseudomonas aeruginosa; PA14, propidium iodine staining
Protocol: The eDNA release assay was performed as described previously[3] with slight modifications. The impact on eDNA was assessed by incubation of biofilm with propidium iodine solution (0.025 mg mL−1) for 3 h and detection of specific florescence at 620 nm after a thorough washing step with […]
1.2.7 P. aeruginosa clinical isolates from bronchiectasis patients – phenotypic characterization and inhibition of pyocyanin production
Clinical isolates. The P. aeruginosa strains had been isolated from respiratory secretions collected from patients with bronchiectasis seen at the bronchiectasis out-patient clinic of Hannover Medical School. The clinical isolates were genotyped by a custom-made multilocus microarray.[4] The hexadecimal SNP genotype was converted into the multilocus sequence genotype (MLST)[5] by comparison with the sequence of the seven selected housekeeping genes in genome sequences of the same clone deposited in our in-house[6] or the International Pseudomonas Genome Database.[7]

[2] = biological target: T1, IK (KCa3.1) calcium-activated potassium channel (Homo sapiens, UniProt O15554); assay: Ion channel profiling at Charles River: IK; format: cell-based; settings: expressed in CHO cells; read-out: ESTIMATED IC50
T1 construct: host or cells: CHO cells
Protocol: (§1) 1.4.3 Ion Channel Profiling at Charles River
(§2) Table S9. Compound 24 was tested against the following ion channels at Charles River Laboratories. […]
(§3) FASTPatch Assay IK (KCa3.1) calcium-activated potassium channel (human KCNN4 >30 gene) expressed in CHO cells […]
(§4) FLIPR Assay expressed in HEK293 cells
(§5) GABAA α5/β3/γ2 ionotropic receptor (human GABRA5, GABRB3, >30 and GABRG2 genes, expressed in HEK293 cells

[3] = biological target: T2, hKv1.5 potassium channels (Homo sapiens, UniProt P22460); assay: Ion channel profiling at Charles River: hKv1.5; format: cell-based
T2 construct: host or cells: CHO cells
T2 sequence (P22460 whole entry): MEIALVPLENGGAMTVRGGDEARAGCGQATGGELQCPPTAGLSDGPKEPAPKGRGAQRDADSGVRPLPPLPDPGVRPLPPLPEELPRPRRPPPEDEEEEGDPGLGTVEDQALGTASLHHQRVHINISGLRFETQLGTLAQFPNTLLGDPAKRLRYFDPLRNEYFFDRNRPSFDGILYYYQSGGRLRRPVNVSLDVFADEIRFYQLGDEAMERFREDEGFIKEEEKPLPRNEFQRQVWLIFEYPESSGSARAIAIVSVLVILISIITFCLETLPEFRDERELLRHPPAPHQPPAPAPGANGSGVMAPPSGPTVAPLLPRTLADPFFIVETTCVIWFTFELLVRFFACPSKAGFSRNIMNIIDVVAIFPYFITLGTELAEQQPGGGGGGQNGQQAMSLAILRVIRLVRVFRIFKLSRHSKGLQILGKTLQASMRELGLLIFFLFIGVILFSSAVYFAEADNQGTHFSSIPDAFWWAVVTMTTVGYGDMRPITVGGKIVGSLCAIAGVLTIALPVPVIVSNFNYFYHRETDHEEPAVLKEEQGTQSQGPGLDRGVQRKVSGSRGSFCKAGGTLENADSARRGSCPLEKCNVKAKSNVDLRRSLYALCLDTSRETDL
Protocol: as §1, §2
FASTPatch Assay IK (KCa3.1) calcium-activated potassium channel (human KCNN4 >30 gene) expressed in CHO cells
Cloned hKv1.5 potassium channels (encoded by the human 32.6
KCNA5 gene, expressed in CHO cells) […]
as §4, §5

[4] = biological target: T3, GABAA α5/β3/γ2 ionotropic receptor (Homo sapiens, UniProt P18507+P28472+P31644); assay: Ion channel profiling at Charles River: GABAA; format: cell-based
T3 construct: host or cells: HEK293 cells
T3 sequence (P31644 32-462): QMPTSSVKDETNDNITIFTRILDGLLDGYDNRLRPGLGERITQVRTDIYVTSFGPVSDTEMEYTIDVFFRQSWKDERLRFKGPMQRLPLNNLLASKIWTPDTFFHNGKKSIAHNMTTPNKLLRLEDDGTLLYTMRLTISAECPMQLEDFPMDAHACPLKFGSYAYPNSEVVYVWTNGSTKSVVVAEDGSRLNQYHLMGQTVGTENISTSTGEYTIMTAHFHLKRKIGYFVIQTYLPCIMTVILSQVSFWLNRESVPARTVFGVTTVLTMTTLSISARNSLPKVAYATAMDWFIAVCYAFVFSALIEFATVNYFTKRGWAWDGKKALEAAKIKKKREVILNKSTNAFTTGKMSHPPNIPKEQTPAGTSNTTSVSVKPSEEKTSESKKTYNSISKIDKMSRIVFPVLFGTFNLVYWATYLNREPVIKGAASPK
T3 sequence (P28472 26-473): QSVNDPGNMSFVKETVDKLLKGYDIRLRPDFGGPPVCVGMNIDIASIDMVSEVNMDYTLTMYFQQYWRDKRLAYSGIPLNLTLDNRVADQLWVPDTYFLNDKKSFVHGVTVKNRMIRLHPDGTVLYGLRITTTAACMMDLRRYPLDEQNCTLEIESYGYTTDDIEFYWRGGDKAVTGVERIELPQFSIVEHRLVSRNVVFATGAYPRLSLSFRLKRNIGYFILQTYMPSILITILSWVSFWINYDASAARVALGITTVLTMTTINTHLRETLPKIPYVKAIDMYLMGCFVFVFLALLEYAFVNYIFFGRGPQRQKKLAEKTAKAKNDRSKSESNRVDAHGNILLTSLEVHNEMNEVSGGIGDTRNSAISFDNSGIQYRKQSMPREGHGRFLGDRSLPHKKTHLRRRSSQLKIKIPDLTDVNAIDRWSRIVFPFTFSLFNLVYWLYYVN
T3 sequence (P18507 40-475): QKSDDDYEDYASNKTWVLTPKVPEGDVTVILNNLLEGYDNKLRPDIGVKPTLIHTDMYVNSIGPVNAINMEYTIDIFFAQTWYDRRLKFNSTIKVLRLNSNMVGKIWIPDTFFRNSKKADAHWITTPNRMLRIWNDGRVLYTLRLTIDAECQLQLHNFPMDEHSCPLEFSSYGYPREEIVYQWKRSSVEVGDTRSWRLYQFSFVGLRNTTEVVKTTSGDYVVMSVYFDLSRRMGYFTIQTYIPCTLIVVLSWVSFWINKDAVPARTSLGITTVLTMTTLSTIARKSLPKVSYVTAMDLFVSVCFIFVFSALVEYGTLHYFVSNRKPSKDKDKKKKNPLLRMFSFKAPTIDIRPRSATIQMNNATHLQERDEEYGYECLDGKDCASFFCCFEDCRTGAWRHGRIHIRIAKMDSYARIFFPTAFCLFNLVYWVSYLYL
Protocol: as §1, §2, §3
ScreenPatch Assay Kv1.3 potassium channel (human KCNA3 gene) expressed in CHO […]
as §4, §5

V1a (h) = biological target: T4, V1a (h) (Homo sapiens, UniProt P37288); assay: Cerep panel binding assay; settings: agonist radioligand
T4 construct: purchased Eurofins Pharma Discovery (Cerep) SafetyScreen44 Panel, ITEM P270
T4 sequence (P37288 whole entry): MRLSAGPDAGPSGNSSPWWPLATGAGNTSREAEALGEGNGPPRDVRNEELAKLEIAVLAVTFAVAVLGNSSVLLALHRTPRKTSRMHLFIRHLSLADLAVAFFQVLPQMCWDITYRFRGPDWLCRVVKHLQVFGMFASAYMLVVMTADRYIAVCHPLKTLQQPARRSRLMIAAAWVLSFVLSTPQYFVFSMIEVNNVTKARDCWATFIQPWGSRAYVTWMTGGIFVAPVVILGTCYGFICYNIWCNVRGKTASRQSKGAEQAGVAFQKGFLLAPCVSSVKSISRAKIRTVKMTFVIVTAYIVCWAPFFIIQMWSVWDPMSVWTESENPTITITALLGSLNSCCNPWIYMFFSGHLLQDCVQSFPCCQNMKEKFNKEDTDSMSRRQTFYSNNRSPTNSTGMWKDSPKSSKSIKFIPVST
Protocol: 1.4 Safety Pharmacology of Compound 24
1.4.1 Cerep panel (Eurofins)
Compound 24 was further profiled for its off-target interactions against a panel of 44 targets. The
screening was done by Eurofins Pharma Discovery within the SafetyScreen44 Panel (Cerep, ITEM
P270). In all assays binding/functional inhibition was determined at 10 µM.
Table S6. […]
V1a (h) (agonist radioligand) 7.6

[5] = Kinetic turbidimetric aqueous solubility; settings: PBS buffer, kinetic from dmso stock

CC(C)Oc1ccc(-c2ncc(CNc3ccnc(C(F)(F)F)c3)cn2)cc1Cl [Compound 24]
IC50 ([1]; read-out: IC50 RP73, 2‐AA biosynthesis): 213 nM
IC50 ([1]; read-out: IC50 RP73, HHQ biosynthesis): 453 nM
IC50 ([1]; read-out: IC50 RP73, HQNO biosynthesis): 230 nM
IC50 ([1]; read-out: IC50 RP73, PQS biosynthesis): 160 nM
IC50 (PA14 biofilm): 346 nM
IC50 [2]: > 30000 nM
IC50 ([3]; expressed in CHO cells, read-out: ESTIMATED IC50): 32600 nM
IC50 ([3]; read-out: hKv1.5 functional inhibition IC50): ~30000 nM
IC50 [4]: > 30000 nM
inhibition at 10 µM (V1a (h)): 7.6%
solubility kinetic at 5 min [5]: 47.2 µM (≈ 20 µg/mL)
